Bounds are passed on as bounds.

This passage reports IC50 and IC90 results from ChEMBL document CHEMBL4483862, “Open-source discovery of chemical leads for next-generation chemoprotective antimalarials” (2018).

The experiment has as its system Plasmodium berghei. The experiment in a line: Luciferase/luciferin-expressing antifolate-resistant parasites were used to infect a culture of HepG2 cells that were pre-incubated with compounds. Infected hepatocytes emit light due to the luciferase reaction. Assay results are presented as the percent inhibition of light emission compared to control. […]. As to conditions: sporozoite; for IC90: read-out: LUCIFERASE INFECTION ASSAY - IC90. In kind it is functional.

With `Cc1ccc(S(=O)(=O)n2c3ccc(Cl)cc3c3nc(C)sc32)cc1`, the IC90 (as a rule, the concentration needed for an effect of 90%) is above 8.76 µM. Moreover, the IC50 (as a rule, the midpoint of a concentration-inhibition curve) (FFLUC_HILL_SLOPE 13.1, FFLUC_R_SQUARED 0.689, read-out: LUCIFERASE INFECTION ASSAY - IC50) was above 8.76 µM.

On to `O=C(Nc1nc2ccccc2[nH]1)c1ccccn1`, for which the IC90 is above 10 µM. The IC50 (FFLUC_HILL_SLOPE 12.7, FFLUC_R_SQUARED 0.6, read-out: LUCIFERASE INFECTION ASSAY - IC50) was above 10 µM.

As for `Cc1cc(NC(=O)Cn2ncc(Br)c(Br)c2=O)n(C)n1`, the IC90 was above 10 µM. Under “FFLUC_HILL_SLOPE 13, FFLUC_R_SQUARED 0.376, HEPG2TOX_HILL_SLOPE 25.8, HEPG2TOX_R_SQUARED 0.794, PBLUC_HILL_SLOPE 3.09, PBLUC_R_SQUARED 0.556, read-out: LUCIFERASE INFECTION ASSAY - IC50”, the IC50 stood at 5.35 µM.

In the case of `Nc1c(NCCO)cc(NC2CCCCC2)c2c1C(=O)c1ccccc1C2=O`, the IC90 was above 8.7 µM. The IC50 (FFLUC_HILL_SLOPE 12.9, FFLUC_R_SQUARED 0.405, PBLUC_HILL_SLOPE 2.49, PBLUC_R_SQUARED 0.563, read-out: LUCIFERASE INFECTION ASSAY - IC50) was above 8.7 µM.

As to `CCCCCCOCC[N+](C)(CCOCCCCCC)CCOCCCCCC`, the IC90 came out at 1.08 µM. For the same compound, the IC50 (FFLUC_HILL_SLOPE 13.1, FFLUC_R_SQUARED 0.46, HEPG2TOX_HILL_SLOPE 1.63, HEPG2TOX_R_SQUARED 0.995, PBLUC_HILL_SLOPE 15.2, PBLUC_R_SQUARED 0.558, read-out: LUCIFERASE INFECTION ASSAY - IC50) amounted to 0.933 µM.

As to `CC1CCN(S(=O)(=O)c2ccc(C(=O)NCc3cccc(C(F)(F)F)c3)cc2)CC1`, the IC90 is above 10 µM. The IC50 (FFLUC_HILL_SLOPE 13.2, FFLUC_R_SQUARED 0.207, read-out: LUCIFERASE INFECTION ASSAY - IC50) is above 10 µM.

`Fc1ccc(N2c3cc(F)ccc3N=C(c3ccccc3)C2c2ccccc2)cc1` (stereo not drawn): the concentration for an effect of 90% (IC90) was above 8.32 µM. For the same compound, the IC50 (FFLUC_HILL_SLOPE 13.2, FFLUC_R_SQUARED 0.317, HEPG2TOX_HILL_SLOPE 1.35, HEPG2TOX_R_SQUARED 0.526, PBLUC_HILL_SLOPE 1.66, PBLUC_R_SQUARED 0.328, read-out: LUCIFERASE INFECTION ASSAY - IC50) was 5.47 µM.

For the compound `COc1ccc(C2=Cc3nc4ccccc4n3C3(C(F)(F)F)OC(c4ccccc4)=NN23)cc1` (stereo not drawn), the IC90 is above 10 µM. Besides, under “FFLUC_HILL_SLOPE 13.2, FFLUC_R_SQUARED 0.193, HEPG2TOX_HILL_SLOPE 11.1, HEPG2TOX_R_SQUARED 0.974, PBLUC_HILL_SLOPE 14.1, PBLUC_R_SQUARED 0.236, read-out: LUCIFERASE INFECTION ASSAY - IC50”, the IC50 was 9.44 µM.

With `N#Cc1c(Cl)nsc1NCc1cnn(Cc2ccccc2)c1`, the IC90 amounted to 1.22 µM. The IC50 (FFLUC_HILL_SLOPE 12.9, FFLUC_R_SQUARED 0.244, HEPG2TOX_HILL_SLOPE 2.27, HEPG2TOX_R_SQUARED 0.949, PBLUC_HILL_SLOPE 20.5, PBLUC_R_SQUARED 0.627, read-out: LUCIFERASE INFECTION ASSAY - IC50) amounted to 1.1 µM.

In the case of `CC(C)(C)NS(=O)(=O)c1cccc2c(N)cccc12`, the IC90 worked out at 5.45 µM. In addition, for the setting “FFLUC_HILL_SLOPE 12.8, FFLUC_R_SQUARED 0.416, HEPG2TOX_HILL_SLOPE 12.3, HEPG2TOX_R_SQUARED 0.393, PBLUC_HILL_SLOPE 11.3, PBLUC_R_SQUARED 0.345, read-out: LUCIFERASE INFECTION ASSAY - IC50”, the IC50 came to 4.49 µM.

With `C=C(C)C/N=c1\scc(-c2ccc(OC)cc2OC)n1/N=C(\C)c1ccc(OC)cc1`, the IC90 was above 10 µM. The IC50 (FFLUC_HILL_SLOPE 13, FFLUC_R_SQUARED 0.36, read-out: LUCIFERASE INFECTION ASSAY - IC50) was above 10 µM.

As for `CCOC(=O)c1c(CC(C)C)csc1NC(=O)CNc1ccc(-n2cnnn2)cc1`, the IC90 is above 10 µM. The IC50 (FFLUC_HILL_SLOPE 13, FFLUC_R_SQUARED 0.249, read-out: LUCIFERASE INFECTION ASSAY - IC50) was above 10 µM.

Regarding `C=C1N(C)c2ccc(NC(=O)c3ccccc3)cc2C1(C)C`, the IC90 was found to be 3.46 µM. Besides, the IC50 (FFLUC_HILL_SLOPE 13, FFLUC_R_SQUARED 0.522, HEPG2TOX_HILL_SLOPE 2.51, HEPG2TOX_R_SQUARED 0.97, PBLUC_HILL_SLOPE 14.6, PBLUC_R_SQUARED 0.431, read-out: LUCIFERASE INFECTION ASSAY - IC50) came out at 2.98 µM.

For `COC(=O)c1ccc(C(=O)OC)c(N2C(=O)C=CC2=O)c1`, the IC90 is above 11.4 µM. Moreover, the IC50 (FFLUC_HILL_SLOPE 12.8, FFLUC_R_SQUARED 0.0109, PBLUC_HILL_SLOPE 0.51, PBLUC_R_SQUARED 0.565, read-out: LUCIFERASE INFECTION ASSAY - IC50) was determined as 0.503 µM.

Take `COc1cccc(-c2[nH]nc3ccnc(-c4ccc(C(C)C)cc4)c23)c1`: the 90% effect concentration (IC90) was above 10 µM. For the same compound, the IC50 (FFLUC_HILL_SLOPE 13.2, FFLUC_R_SQUARED 0.418, read-out: LUCIFERASE INFECTION ASSAY - IC50) is above 10 µM.

Regarding `CC(=O)N(c1nn(CN(C2CC2)C2CCS(=O)(=O)C2)c(=S)s1)C1CC1` (stereo not drawn), the IC90 is above 10 µM. The IC50 (FFLUC_HILL_SLOPE 12.8, FFLUC_R_SQUARED 0.42, read-out: LUCIFERASE INFECTION ASSAY - IC50) was above 10 µM.

`COc1ccc(-c2nc3ccccc3n2-c2cc(-c3ccccc3)nn2-c2ccccc2)cc1`: the concentration for an effect of 90% (IC90) amounted to 8.43 µM. The IC50 (FFLUC_HILL_SLOPE 12.7, FFLUC_R_SQUARED 0.403, HEPG2TOX_HILL_SLOPE 1.43, HEPG2TOX_R_SQUARED 0.399, PBLUC_HILL_SLOPE 4.08, PBLUC_R_SQUARED 0.666, read-out: LUCIFERASE INFECTION ASSAY - IC50) was 4.92 µM.

`Cc1c(Sc2ccccc2[N+](=O)[O-])c2ccccn2c1C(=O)c1ccc(Br)cc1`: the IC90 was above 10 µM. For the same compound, the 50% inhibitory concentration (IC50) (FFLUC_HILL_SLOPE 12.7, FFLUC_R_SQUARED 0.226, PBLUC_HILL_SLOPE 11.1, PBLUC_R_SQUARED 0.312, read-out: LUCIFERASE INFECTION ASSAY - IC50) came out at 9.73 µM.

Take `CC(C)(C)c1ccc(-c2nc(-c3ccc(C(F)(F)F)cc3)cs2)cc1`: the IC90 is above 9.13 µM. For the same compound, under “FFLUC_HILL_SLOPE 12.9, FFLUC_R_SQUARED 0.362, PBLUC_HILL_SLOPE 0.825, PBLUC_R_SQUARED 0.291, read-out: LUCIFERASE INFECTION ASSAY - IC50”, the IC50 was 3.25 µM.

For the compound `CC(C)(C)c1nnc(Sc2ncc([N+](=O)[O-])s2)[nH]1`, the IC90 is 11.3 µM. Besides, the IC50 (FFLUC_HILL_SLOPE 12.8, FFLUC_R_SQUARED 0.253, HEPG2TOX_HILL_SLOPE 7.13, HEPG2TOX_R_SQUARED 0.706, PBLUC_HILL_SLOPE 14.6, PBLUC_R_SQUARED 0.134, read-out: LUCIFERASE INFECTION ASSAY - IC50) stood at 9.74 µM.

For the compound `Cc1ccc(C(c2cc(Cl)c3cccnc3c2O)N2CCCC2)cc1` (stereo not drawn), the IC90 is 4.12 µM. Moreover, where the note is “FFLUC_HILL_SLOPE 12.7, FFLUC_R_SQUARED 0.41, HEPG2TOX_HILL_SLOPE 6.94, HEPG2TOX_R_SQUARED 0.0505, PBLUC_HILL_SLOPE 13.5, PBLUC_R_SQUARED 0.562, read-out: LUCIFERASE INFECTION ASSAY - IC50”, the IC50 turned out to be 3.5 µM.

For `Cc1cc2occ(CC(=O)N(c3ccc(F)cc3)c3nc4ccccc4s3)c2cc1C(C)C`, the IC90 is above 10 µM. Also, under “FFLUC_HILL_SLOPE 13, FFLUC_R_SQUARED 0.172, read-out: LUCIFERASE INFECTION ASSAY - IC50”, the IC50 was above 10 µM.

In the case of `N#CC(C(=O)c1ccccc1NC(=O)C(F)(F)F)c1nc(-c2ccc(Cl)cc2)cs1` (stereo not drawn), the IC90 is above 10 µM. The IC50 (FFLUC_HILL_SLOPE 12.8, FFLUC_R_SQUARED 0.656, read-out: LUCIFERASE INFECTION ASSAY - IC50) was above 10 µM.

In the case of `CCO/C=N/Nc1nc(C(F)(F)F)nc2c1cnn2-c1ccccc1`, the IC90 was above 10 µM. Moreover, the IC50 (FFLUC_HILL_SLOPE 12.8, FFLUC_R_SQUARED 0.468, PBLUC_HILL_SLOPE 1.59, PBLUC_R_SQUARED 0.442, read-out: LUCIFERASE INFECTION ASSAY - IC50) was found to be 4.62 µM.

Regarding `O=S(=O)(/N=C(\N/N=C/c1ccc(Cl)cc1)N1CCCC1)c1ccc(-n2nc(C(F)(F)F)cc2-c2cccs2)cc1`, the IC90 is above 5.44 µM. Further, the IC50 (FFLUC_HILL_SLOPE 13, FFLUC_R_SQUARED 0.6, read-out: LUCIFERASE INFECTION ASSAY - IC50) was above 5.44 µM.

As to `N#C/C(=C\c1ccc(O)cc1)c1nc(C(c2ccccc2)c2ccccc2)no1`, the IC90 was above 10 µM. Moreover, for the setting “FFLUC_HILL_SLOPE 12.8, FFLUC_R_SQUARED 0.5, read-out: LUCIFERASE INFECTION ASSAY - IC50”, the IC50 was above 10 µM.

With `N#C/C(=N\Nc1cc(C(F)(F)F)cc(C(F)(F)F)c1)C(=O)c1ccco1`, the IC90 came out at 8.44 µM. Where the note is “FFLUC_HILL_SLOPE 13.1, FFLUC_R_SQUARED 0.556, HEPG2TOX_HILL_SLOPE 1.19, HEPG2TOX_R_SQUARED 0.748, PBLUC_HILL_SLOPE 4.82, PBLUC_R_SQUARED 0.319, read-out: LUCIFERASE INFECTION ASSAY - IC50”, the IC50 amounted to 5.35 µM.

With `N=C1C(=S)N(c2ccc(Cl)c(Cl)c2)C(=O)N1c1ccc(OC(F)(F)F)cc1`, the IC90 is above 7.6 µM. Further, the IC50 (FFLUC_HILL_SLOPE 13.1, FFLUC_R_SQUARED 0.176, read-out: LUCIFERASE INFECTION ASSAY - IC50) was above 7.6 µM.

With `Cc1ccc2nc(SCC(=O)c3cc(C)n(-c4ccc5c(c4)OCCO5)c3C)[nH]c2c1`, the IC90 is above 10 µM. Moreover, where the note is “FFLUC_HILL_SLOPE 12.9, FFLUC_R_SQUARED 0.345, HEPG2TOX_HILL_SLOPE 0.403, HEPG2TOX_R_SQUARED 0.877, read-out: LUCIFERASE INFECTION ASSAY - IC50”, the IC50 is above 10 µM.
